The source of these data is US4855323A, “Leukotriene antagonists, a process for the preparation thereof, and the use thereof for the treatment of diseases” (Hoechst Aktiengesellschaft, priority 1987, dated 1989).

Common to all, as to type: cell-based
Assay [1] concerns LTD4-induced contraction of strips of guinea pig lung. Nature of the assay: inhibition of LTD4-induced contraction of strips of guinea pig lung. The note with it: Cavia porcellus; LTD4 3 ng/ml; indomethacin-pretreated strips (10^-6 g/ml); test substance added after maximum contraction plateau; 37° C.; read-out: IC50 with respect to LTD4. Here is the method: (§1) The leukotriene-antagonistic action of the substances of the general formula I according to the invention is determined by the inhibition of the leukotriene-induced contraction of strips of guinea pig lung. The method which is used is a modification of the test described by Foreman, Shelly and Weber (Arch. Int. Pharmacodyn. 278, 193-206 (1985)).
(§2) Guinea pigs are sacrificed by an overdose of ether. The thoracic cavity is opened; the lungs are removed and cut into strips 5 cm long, which are stored in physiological saline. For the measurement, the strips of lung are placed in an organ bath filled with Ringer's solution which is equilibrated at 37° C. and through which carbogen (O2 /CO2 95:5 parts by volume) is passed. The strips are left to equilibrate under a load of 0.5-1 g for 30-60 minutes. The strips of lung are pretreated with indomethacin (10^-6 g/ml of bath liquid) before the test starts.
(§3) The contraction is induced by adding LTC4, LTD4 or LTE4 in a concentration of 3 ng/ml of bath liquid. The test substances are administered therapeutically into the bath, after the maximum contraction plateau has been reached, in several concentrations and at time intervals of 10 minutes. 6-12 strips of lung are used for each concentration of the test substance.
(§4) The concentrations of the test substances at which the contraction is reduced by 50% (IC50) are indicated in μg/ml.

For assay [2], the system named is LTE4-induced contraction of strips of guinea pig lung. The experiment in a line: inhibition of LTE4-induced contraction of strips of guinea pig lung. As to conditions: Cavia porcellus; LTE4 3 ng/ml; indomethacin-pretreated strips (10^-6 g/ml); test substance added after maximum contraction plateau; 37° C.; read-out: IC50 with respect to LTE4. Here is the method:
as §1, §2, §3, §4

Assay [3] concerns LTC4-induced contraction of strips of guinea pig lung. Nature of the assay: inhibition of LTC4-induced contraction of strips of guinea pig lung. As to conditions: Cavia porcellus; LTC4 3 ng/ml; indomethacin-pretreated strips (10^-6 g/ml); test substance added after maximum contraction plateau; 37° C.; read-out: IC50 with respect to LTC4. As for the experimental part:
as §1, §2, §3, §4

Values after ≈ are worked out from the molar mass of the structure shown.

For orientation: IC50 means the concentration at which inhibition is half-maximal. Consider `COC(=O)CCSCC(O)Cc1ccccc1OCc1ccccc1` (racemic) [Compound A, Methyl (6RS)-7-(2-benzyloxyphenyl)-6-hydroxy-4-thiaheptanoate], for which the half-inhibitory concentration (IC50) in assay [1] is 0.6 µg/mL (≈ 1.66 µM); in assay [2], 0.6 to 1 µg/mL (≈ 1.66 to 2.77 µM); in assay [3] it was 0.6 to 1 µg/mL (≈ 1.66 to 2.77 µM).
On to `COC(=O)CCSCC(O)Cc1cccc(C2CCCC2)c1OCc1ccccc1` (racemic) [Compound B, Methyl (6RS)-7-(2-benzyloxy-3-cyclopentylphenyl)-6-hydroxy-4-thiaheptanoate], for which the concentration for half-maximal inhibition (IC50) came out at 1 µg/mL (≈ 2.33 µM) in assay [1], 3 µg/mL (≈ 7 µM) in assay [2] and 0.6 µg/mL (≈ 1.4 µM) in assay [3].
In the same order, the values of `O=C(O)CCSCC(O)Cc1cccc(C2CCCC2)c1OCc1ccccc1` (racemic) [Compound C, (6RS)-7-(2-Benzyloxy-3-cyclopentylphenyl)-6-hydroxy-4-thiaheptanoic acid] are 3 to 6 µg/mL (≈ 7.24 to 14.5 µM), 3 µg/mL (≈ 7.24 µM) and 3 to 6 µg/mL (≈ 7.24 to 14.5 µM).
Consider `COC(=O)CCSCC(O)Cc1cc(Cl)ccc1OCc1ccccc1` (racemic) [Compound D, Methyl (6RS)-7-(2-benzyloxy-5-chlorophenyl)-6-hydroxy-4-thiaheptanoate], for which the IC50 in assay [1] was 3 µg/mL (≈ 7.6 µM); in assay [2], 1 to 3 µg/mL (≈ 2.53 to 7.6 µM); in assay [3], 6 to 10 µg/mL (≈ 15.2 to 25.3 µM).
Taken in the same sequence, the figures for `OCCSCC(O)Cc1cccc(C2CCCC2)c1OCc1ccccc1` (racemic) [Compound E, (5RS)-6-(2-benzyloxy-3-cyclopentylphenyl)-3-thiahexane-1,5-diol] were 6 to 10 µg/mL (≈ 15.5 to 25.9 µM), 1 to 3 µg/mL (≈ 2.59 to 7.76 µM) and 6 to 10 µg/mL (≈ 15.5 to 25.9 µM).
